Assay [1] deals with T1, DCAF15 RBM39 ternary complex (Homo sapiens, UniProt Q14498+Q66K64, DEL276-383).
T1 construct: RBM39 (aa 150 to 331; UniProt: Q14498); TEV cleavage site (pGEX4T3 vector); made in house; host or cells: Sf9 (baculovirus) for the triplex; E. coli for the RBM39 fragment according to b294
Put plainly: DCAF15 RBM39 Ternary Complex Formation Assay. The following applies: apparent EC50 for compound-induced complex formation, 10 nM DCAF15 triplex, 50 nM RBM39 R1R2, FRET 665/615. In kind it is binding. An excerpt:
(§1) Proteins used for the assays were as follows: Human DDA1 (UniProt:Q9BW61), DDB1 (UniPro:Q16531), and DCAF15 (UniProt:Q66K64) coding sequences were cloned into pFastBac1 vectors and were co-expressed in Sf9 cells using Bac-to-Bac baculovirus expression system (Thermo Fisher Scientific). The expression construct for DCAF15 includes a N-terminal His6-tag to facilitate the purification. The atrophin-1 homology region of DCAF15 (amino acid residues 276-383) was excised (Apro, originally to facilitate crystallization). Triplex of DDA1-DDB1ΔB-DCAF15Apro, which has the BPB domain (aa 396 to 705) excised and replaced with a GNGNSG linker, was used in all the kinetic measurements because of the higher yield. R^1R^2 of RBM39 (aa 150 to 331; UniProt: Q14498) contained a C-terminal FLAG tag used in the DCAF15/RBM39 complex formation assay. DCAF15 Displacement Assay (Displacement FRET KD)
His-tagged DDA1-DDB1ΔB-DCAFISΔpro triplex and RIR2 with a C-terminal FLAG were used in the assay and compound-induced complex formation was monitored through resonance transfer between europium-labeled anti-His antibody and APC-labeled anti-FLAG antibody (AD0059F, Perkin Elmer).

In another assay the target is T2, DCAF15 (Homo sapiens, UniProt Q66K64, DEL276-383).
T2 construct: made in house; host or cells: Sf9 (baculovirus, Bac-to-Bac)
Put plainly: DCAF15 Displacement Assay (displacement of probe PT7795, FRET). The class given is binding. The note with it: competition with 300 nM PT7795 on DDA1-DDB1ΔB-DCAF15Δpro triplex, 18 hours incubation, FRET 665/615.
Text: as §1
The previously described procedure was followed (See X. Du, et al., “Structural Basis and Kinetic Pathway of RBM39 Recruitment to DCAF15 by a Sulfonamide Molecular Glue E7820”, Structure, 27, 1625-1633.e3, 2019). Synthesis of the probe PT7795 is described in the article.
Binding of PT7795 to DDA1-DDB1ΔB-DCAF15Apro was measured by the FRET signal between europium-labeled anti-His antibody (AD0205, Perkin Elmer) that is associated with His-tagged DCAF15 and ALX647 moiety in PT7795. The concentration of PT7795 was varied from 2.3 nM to 1000 nM in 16 wells, each containing 25 mM HEPES pH7.5, 100 mM NaCl, 0.1 mg/ml BSA, 0.005% Tween 20, 0.5 mM TCEP, 4% DMSO, 0.5 nM europium-labeled anti-His antibody, and 10 nM triplex of DDA1-DDB1 DB-DCAF15 Apro. After equilibrating for 2-3 hours at 4° C., the plate was removed from the incubator, briefly spun, then read on a Spark 10 (Tecan) at the excitation/emission wavelength of 340 nm/615 nm and 340 nm/665 nm. To obtain Kd, the ratio of 665/615 readings was fitted to Equation 1, where F stands for the ratio of 665/615 […].
Binding of compounds in this disclosure to DCAF15 was measured in a competition by the displacement of PT7795. The concentration of PT7795 was kept at 300 nM while the concentration of a compound was varied from 0.01 to 100 μM. The incubation time was increased to 18 hours for enhanced signal to noise level. To obtain IC50, the ratio of 665/615 readings was fitted to Equation 2, where n is Hill slope.

For orientation: EC50 means the concentration needed to bring the measured effect to its halfway point. As a reminder, the IC50 is the point on the concentration scale where inhibition reaches its midpoint. On to `COCCOCCCN1Cc2cc(Cl)c3c(Cl)c[nH]c3c2NS1(=O)=O` [Compound 1, 6,7-dichloro-3-(3-(2-methoxyethoxy)propyl)-1,3,4,9-tetrahydro-[1,2,6]thiadiazino[4,3-g]indole 2,2-dioxide], for which the half-maximal effective concentration (EC50) in assay [1] amounted to 12.7 nM. The compound also returned an IC50 on DCAF15 of 1420 nM.

Regarding `COCCOCCOCCCN1Cc2cc(Cl)c3c(Cl)c[nH]c3c2NS1(=O)=O` [Compound 2, 6,7-dichloro-3-(3-(2-(2-methoxyethoxy)ethoxy)propyl)-1,3,4,9-tetrahydro-[1,2,6]thiadiazino[4,3-g]indole 2,2-dioxide], in assay [1], the EC50 was 247 nM. In addition, at DCAF15, the IC50 is 25000 nM.

Consider `COCCCCCOCCCN1Cc2cc(Cl)c3c(Cl)c[nH]c3c2NS1(=O)=O` [Compound 3, 6,7-dichloro-3-(3-((5-methoxypentyl)oxy)propyl)-1,3,4,9-tetrahydro-[1,2,6]thiadiazino[4,3-g]indole 2,2-dioxide], for which, in assay [1], the EC50 stood at 21.4 nM. In addition, the IC50 on DCAF15 was 2500 nM.

For `COCCOCC(=O)N1CCC(CN2Cc3cc(Cl)c4c(Cl)c[nH]c4c3NS2(=O)=O)CC1` [Compound 4, 1-(4-((6,7-dichloro-2,2-dioxido-4,9-dihydro-[1,2,6]thiadiazino[4,3-g]indol-3(1H)-yl)methyl)piperidin-1-yl)-2-(2-methoxyethoxy)ethan-1-one], the EC50 in assay [1] was found to be 4.3 nM. Moreover, the IC50 on DCAF15 turned out to be 200 nM.

Take `COCCOCC(=O)N1CCCC(CN2Cc3cc(Cl)c4c(Cl)c[nH]c4c3NS2(=O)=O)C1` (stereo not shown) [Compound 5, 1-(3-((6,7-dichloro-2,2-dioxido-4,9-dihydro-[1,2,6]thiadiazino[4,3-g]indol-3(1H)-yl)methyl)piperidin-1-yl)-2-(2-methoxyethoxy)ethan-1-one]: the EC50 in assay [1] was 7.8 nM. At DCAF15, the IC50 came out at 98 nM.

`COCCCCC(=O)N1CCC(CN2Cc3cc(Cl)c4c(Cl)c[nH]c4c3NS2(=O)=O)CC1` [Compound 6, 1-(4-((6,7-dichloro-2,2-dioxido-4,9-dihydro-[1,2,6]thiadiazino[4,3-g]indol-3(1H)-yl)methyl)piperidin-1-yl)-5-methoxypentan-1-one]: the EC50 in assay [1] was found to be 4.3 nM. Also, the IC50 at DCAF15 was found to be 156 nM.

As to `COCCCCC(=O)N1CCCC(CN2Cc3cc(Cl)c4c(Cl)c[nH]c4c3NS2(=O)=O)C1` (stereo not shown) [Compound 7, 1-(3-((6,7-dichloro-2,2-dioxido-4,9-dihydro-[1,2,6]thiadiazino[4,3-g]indol-3(1H)-yl)methyl)piperidin-1-yl)-5-methoxypentan-1-one], the EC50 in assay [1] was 10.6 nM. The IC50 at DCAF15 amounted to 480 nM.

Consider `CC(C)(C)OC(=O)NCCCCC(=O)N1CCC(CN2Cc3cc(Cl)c4c(Cl)c[nH]c4c3NS2(=O)=O)CC1` [Compound 8, tert-butyl (5-(4-((6,7-dichloro-2,2-dioxido-4,9-dihydro-[1,2,6]thiadiazino[4,3-g]indol-3(1H)-yl)methyl)piperidin-1-yl)-5-oxopentyl)carbamate], for which the EC50 in assay [1] was determined as 4.5 nM. The compound further gave an IC50 on DCAF15 of 261 nM.

As for `NCCCCC(=O)N1CCC(CN2Cc3cc(Cl)c4c(Cl)c[nH]c4c3NS2(=O)=O)CC1` [Compound 9, 5-amino-1-(4-((6,7-dichloro-2,2-dioxido-4,9-dihydro-[1,2,6]thiadiazino[4,3-g]indol-3(1H)-yl)methyl)piperidin-1-yl)pentan-1-one], the EC50 in assay [1] is 4.9 nM. On DCAF15, the IC50 stood at 244 nM.

Consider `CNC(=O)c1[nH]c2c3c(cc(Cl)c2c1Cl)CN(CC1CCCNC1)S(=O)(=O)N3` (stereo not shown) [Compound 10, 6,7-dichloro-N-methyl-3-(piperidin-3-ylmethyl)-1,3,4,9-tetrahydro-[1,2,6]thiadiazino[4,3-g]indole-8-carboxamide 2,2-dioxide], for which the EC50 in assay [1] is above 25000 nM. The compound also registered an IC50 on DCAF15 of 2090 nM.

In the case of `CNC(=O)c1[nH]c2c3c(cc(Cl)c2c1Cl)CN(CC1CCCN(C(=O)OC(C)(C)C)C1)S(=O)(=O)N3` (stereo not shown) [Compound 11, tert-butyl 3-((6,7-dichloro-8-(methylcarbamoyl)-2,2-dioxido-4,9-dihydro-[1,2,6]thiadiazino[4,3-g]indol-3(1H)-yl)methyl)piperidine-1-carboxylate], in assay [1], the EC50 was above 25000 nM. The IC50 on DCAF15 came out at 1440 nM.

Consider `CNC(=O)c1[nH]c2c3c(cc(Cl)c2c1Cl)CN(CC1CCCN(C(C)=O)C1)S(=O)(=O)N3` (stereo not shown) [Compound 12, 3-((1-acetylpiperidin-3-yl)methyl)-6,7-dichloro-N-methyl-1,3,4,9-tetrahydro-[1,2,6]thiadiazino[4,3-g]indole-8-carboxamide 2,2-dioxide], for which the EC50 in assay [1] was above 25000 nM. At DCAF15, this compound yielded an IC50 of 679 nM.

Consider `COCCCN1Cc2cc(Cl)c3c(Cl)c(C(=O)OC)[nH]c3c2NS1(=O)=O` [Compound 13, methyl 6,7-dichloro-3-(3-methoxypropyl)-1,3,4,9-tetrahydro-[1,2,6]thiadiazino[4,3-g]indole-8-carboxylate 2,2-dioxide], for which the EC50 in assay [1] is above 25000 nM. For the same compound, the IC50 on DCAF15 was determined as 1300 nM.

As to `CCOC(=O)c1[nH]c2c3c(cc(Cl)c2c1Cl)CN(CCCOC)S(=O)(=O)N3` [Compound 14, ethyl 6,7-dichloro-3-(3-methoxypropyl)-1,3,4,9-tetrahydro-[1,2,6]thiadiazino[4,3-g]indole-8-carboxylate 2,2-dioxide], the EC50 in assay [1] amounted to 2510 nM. On DCAF15, this compound came in with an IC50 of 2050 nM.

For `CNC(=O)c1[nH]c2c3c(cc(Cl)c2c1Cl)CN(CCCOC)S(=O)(=O)N3` [Compound 15, 6,7-dichloro-3-(3-methoxypropyl)-N-methyl-1,3,4,9-tetrahydro-[1,2,6]thiadiazino[4,3-g]indole-8-carboxamide 2,2-dioxide], the EC50 in assay [1] was above 25000 nM. This compound also displayed an IC50 at DCAF15 of 1280 nM.

In the case of `COCCCN1Cc2cc(Cl)c3c(Cl)c(CCCC(=O)O)[nH]c3c2NS1(=O)=O` [Compound 18, 4-(6,7-dichloro-3-(3-methoxypropyl)-2,2-dioxido-1,3,4,9-tetrahydro-[1,2,6]thiadiazino[4,3-g]indol-8-yl)butanoic acid], in assay [1], the EC50 was above 25000 nM. The IC50 at DCAF15 is 652 nM.

Take `COCCCN1Cc2cc(Cl)c3c(Cl)c(CCCC(N)=O)[nH]c3c2NS1(=O)=O` [Compound 19, 4-(6,7-dichloro-3-(3-methoxypropyl)-2,2-dioxido-1,3,4,9-tetrahydro-[1,2,6]thiadiazino[4,3-g]indol-8-yl)butanamide]: in assay [1], the EC50 was above 25000 nM. Moreover, the IC50 on DCAF15 turned out to be 824 nM.

For the compound `CC(=O)N1CCCC(CN2Cc3cc(Cl)c4c(Cl)c(CCCC(N)=O)[nH]c4c3NS2(=O)=O)C1` (stereo not shown) [Compound 20, 4-(3-((1-acetylpiperidin-3-yl)methyl)-6,7-dichloro-2,2-dioxido-1,3,4,9-tetrahydro-[1,2,6]thiadiazino[4,3-g]indol-8-yl)butanamide], the EC50 in assay [1] is above 25000 nM. The IC50 on DCAF15 came out at 105 nM.

As for `CC(C)(C)OC(=O)N1CCCC(CN2Cc3cc(Cl)c4c(Cl)c(CCCC(N)=O)[nH]c4c3NS2(=O)=O)C1` (stereo not shown) [Compound 22, tert-butyl 3-((8-(4-amino-4-oxobutyl)-6,7-dichloro-2,2-dioxido-4,9-dihydro-[1,2,6]thiadiazino[4,3-g]indol-3(1H)-yl)methyl)piperidine-1-carboxylate], in assay [1], the EC50 is above 25000 nM. Besides, at DCAF15, the IC50 was 5780 nM.

Take `O=C(O)CCCc1[nH]c2c3c(cc(Cl)c2c1Cl)CN(CC1CCCNC1)S(=O)(=O)N3` (stereo not shown) [Compound 23, 4-(6,7-dichloro-2,2-dioxido-3-(piperidin-3-ylmethyl)-1,3,4,9-tetrahydro-[1,2,6]thiadiazino[4,3-g]indol-8-yl)butanoic acid]: the EC50 in assay [1] was above 25000 nM. On DCAF15, this compound gave a half-maximal inhibitory concentration (IC50) of 277 nM.

(Values after patent US20240400583A1, “TRICYCLIC SULFAMIDES AND SULTAMS” (Merck Sharp & Dohme LLC, priority 2021, published 2024).)
